The test system of test [1] is delayed type hypersensitivity response to SRBCs in Balb/c mice. Put plainly: Murine in vivo DTH response to SRBCs (footweight), oral OdDHL. Particulars: Balb/c mice immunised with 5×10^6 SRBCs. Here is the method:
Eight week old, female Balb/c mice were kept on a 12 hour light/dark cycle and fed food and water ad libitum. SRBCs in Alseviers solution (TCS Biologicals, SB069) were washed and centrifuged (800×g for 20 minutes at room temperature) three times with 0.9% NaCl in distilled water. Cells were counted using a haemocytometer. On day 0 animals were immunised intraperitoneally (IP) with 5×10^6 (low dose) or 5×10^8 (high dose) SRBCs in saline. On day 5, animals were challenged with 20 μl SRBCs at 5×10^9/ml in the left hind paw. The contralateral paw was injected with 20 μl saline alone. After 24 hours the animals were sacrificed with a rising concentration of CO2 and bled by cardiac puncture. The hind feet were severed at the ankle joint and weighed.
Animals were dosed po from day 0 to day 5 with OdDHL. OdDHL was suspended in 0.25% (wt/vol) cellosize (Boots Co. PLC, Nottingham UK) in distilled water containing 1.5% (vol/vol) Tween 80 (Registered Trade Mark, Sigma) for po dosing at 3, 10, 30 and 100 mg/kg. Animals received 0.1 ml po.
This manifests itself as an inflammatory response causing an increase in the size of the foot. Very little antibody is produced. OdDHL at 3, 10, 30 and 100 mg/kg caused a dose dependent increase in footweight of 37%, 60%, 100% and 93% respectively (see FIG. 5). Mice dosed with OdDHL had higher footweights when compared to vehicle dosed animals. The 30 and 100 mg/kg doses (** on graph) are significant as determined by Dunnett's multiple comparison's test after one-way analysis of variance (p<0.01). This assay is considered by the pharmaceutical industry to be […] dependent, indicating the effect of compound treatment on contra-regulating T-helper 1 lymphocytes.

The subject of another test is TNF-alpha production. Put plainly: TNF-alpha production from LPS-stimulated human PBMC. It counts as cell-based. As to conditions: LPS 5×10^−5 μg/ml, 100,000 PBMC, 24 h, ELISA. Here is the method: Bacterial lipopolysaccharide (LPS) stimulates the production of a variety of cytokines, including TNF-alpha, from human PBMC; these cytokines in turn influence the development of T cells, supporting a T helper 1 conducive milieu. Human PBMC prepared from whole blood by buoyant density centrifugation were resuspended in CTCM. HSL compounds were again tested at similar dilutions as for murine splenocytes in 200 μl of CTCM, containing 5×10^−5 μg/ml LPS Escherichia coli strain 055:B5 (Sigma, Poole, UK) and 100,000 PBMC. Following incubation for 24 h at 37° C. in 5% CO2-air, the cell culture supernatants were collected and tested for TNF-alpha levels by ‘sandwich’ ELISA. Briefly, 96-well Nunc MaxiSorp (Life Technologies, Paisley, UK) plates were coated with 50 μl of a 2 μg/ml solution of mouse anti-human TNF-alpha monoclonal antibody (Pharmingen, UK) in 0.05 M carbonate/bicarbonate buffer, pH 9.6 overnight at 4° C. After washing the plates three times with PBS-Tween, which contained phosphate buffered saline (PBS) with 0.5% (vol/vol) Tween 20 (Sigma, Poole, UK), the plates were blocked with 1% (wt/vol) bovine serum albumin (BSA) (Sigma, Poole, UK) at room temperature for 2 h. […] Following four washes, the bound biotinylated antibody was detected with 50 μl of a 1:1,000 dilution of Streptavidin-peroxidase (Pharmingen, UK). […] The enzyme reaction was stopped with 50 μl of 2.5 M H2SO4 after an incubation of 10 minutes at room temperature and the development was read at 450 nm with a spectrophotometric 96-well plate reader (Dynex). […]
Similar studies were carried out using, as the HSL compounds, N-(12-bromo-3-oxododecanoyl)-L-homoserine lactone (12BrOdDHL) and N-(12-hydroxy-3-oxododecanoyl)-L-homoserine lactone (12hydroxyOdDHL) and the plots for these are shown in FIG. 9. […] The IC50 value for dexamethasone was determined to be 500.
In the cell culture assays the number of cells used (mouse splenocytes and human PBMC) was initially optimised to 100,000 cells per well. The optimal dose of ConA of 1 μg/ml used in the cell proliferation assays was determined from ConA titration curves. […]

A further test relates to insulitis in NOD mice. Put plainly: Effect of OdDHL on insulitis in NOD mice (slide score). The test is classed as in vivo. As to conditions: 3 times a week for four weeks. The procedure: To investigate the effect of OdDHL on insulitis or type I diabetes mellitus, mice (NOD) with a genetic predisposition to develop IDDM (insulin dependent diabetes mellitus) were treated with OdDHL. The animals were dosed at […] intraperitoneally from 4 weeks of age, 3 times a week for four weeks. Insulitis was assessed at 14 weeks. In the table a score of 3 or more (DMSO and PBS) represents severe grade insulitis and 1.3 (OdDHL) represents little infiltration (a score of 1 would represent low grade peri-insulitis). The mice were scored according to the method of Beales et al (European Journal of Pharmacology 357(1998) 221-225).

Where “and” joins values, the source holds several entries; their conditions need not be identical. Identical values can stand only once.

On to `CCCCCCCCCC(=O)CC(=O)N[C@H]1CCOC1=O` [OdDHL, N-(3-oxododecanoyl)-L-homoserine Lactone], for which the increase in footweight in test [1] (3 mg/kg po day 0 to day 5, vs vehicle) came to 37%; in test [1] (10 mg/kg po day 0 to day 5, vs vehicle), 60%; in test [1] (30 mg/kg po day 0 to day 5, vs vehicle, p<0.01), 100%; in test [1] (100 mg/kg po day 0 to day 5, vs vehicle, p<0.01), 93%. The “inhibition of TNF-α secretion (FIG. 8)” value in the test with TNF-alpha production was “inhibited the secretion”. Further, in the test on insulitis in NOD mice (100 mg/kg intraperitoneally from 4 weeks of age, insulitis assessed at 14 weeks, one value per animal, 100 mg/kg), the “Slide Score (insulitis), individual animal” value was 1.936 and 1.478 and 1.154 and 1.000 and 1.418. Besides, in the test on insulitis in NOD mice (100 mg/kg intraperitoneally, assessed at 14 weeks), the “Slide Score (insulitis), Group Total” value came to 6.986. In addition, in the test on insulitis in NOD mice (100 mg/kg intraperitoneally, assessed at 14 weeks, score of 3 or more = severe grade insulitis, 1 = low grade peri-insulitis, 100 mg/kg), the “Slide Score (insulitis), Group Mean” value was 1.397.
